Here are results for eight compounds from US7169772B2, “4,4-difluoro-1,2,3,4-tetrahydro-5H-1-benzazepine derivatives or salts thereof” (Astellas Pharma Inc., priority 2001, dated 2007).

In one data set the target is T1, human V2 receptor (Homo sapiens, UniProt P30518).
T1 construct: expressed in transfected cells; host or cells: CHO cells
The data set can be described thus: V2 receptor binding assay. Particulars: human V2 expression CHO cell membrane, [3H]-Vasopressin 0.5 nM, 25° C., 60 minutes; read-out: Ki (affinity for V2 receptor). The procedure:
(1) V2 Receptor Binding Assay
A human V2 expression CHO cell membrane sample was prepared in accordance with a method of Tahara, et al. (British Journal of Pharmacology. Vol 125, p. 1463–1470, 1998). 2 μg of the membrane sample were incubated in a total of 250 μl of 50 mM tris-chloric acid buffer solution (pH=7.4) containing 10 mM MgCl2 and 0.1% bovine serum albumin (BSA), together with [^3H]-Arginine-Vasopressin (hereinafter referred to as ‘[^3H]-Vasopressin’) (0.5 nM, Specific activity=75 Ci mmol) and a test compound (10^−10˜10^−5 M) at 25° C. for 60 minutes. Then, free [^3H]-Vasopressin and receptor binding [^3H]-Vasopressin were separated using a cell harvester, and the receptor binding [^3H]-Vasopressin was adsorbed on a Unifilter Plate GF/B glass filter, sufficiently dried, and then mixed with a microplate scintillation cocktail. The amount of receptor binding [^3H]-Vasopressin was measured using a top count, and inhibition rate was calculated by the following equation. Inhibition Rate(%)=100−(C1−B1)/(C0−B1)×100 • C1: the amount of [^3H]-Vasopressin bound to the membrane sample, when the receptor membrane sample is treated in the coexistence of a test compound of known concentration and [^3H]-Vasopressin • C0: the amount of [^3H]-Vasopressin bound to the membrane sample, when the receptor membrane sample is treated with [^3H]-Vasopressin, in the absence of a test compound • B1: the amount of [^3H]-Vasopressin bound to the membrane sample, when the receptor membrane sample is treated in the coexistence of an excess amount of Vasopressin (10^−6 M) and [^3H]-Vasopressin
Dissociation Coefficient (Ki)=IC50/(1+[L]/Kd) • [L]: the concentration of [^3H]-Vasopressin • Kd: dissociation coefficient of [3H]-Vasopressin for the receptor, calculated from saturation binding assay

A further data set addresses CYP3A4 (Homo sapiens, UniProt P08684). The data set can be described thus: Cytochrome P450 (3A4) enzyme inhibition assay. Format: biochemical. The settings on record: substrate 7-benzyloxy-4-(trifluoromethyl)coumarin, 37° C., 30 minutes. The procedure:
(4) Cytochrome P450 (3A4) Enzyme Inhibition Assay
(§1) The assay was carried out in accordance with a method of Crespi, et al. (Analytical Biochemistry, 248, 188–190, 1997).
A 96 well plate was employed, and 7-benzyloxy-4-(trifluoromethyl)coumarin (5×10^−5 M) as a substrate, a test compound (4.9×10^−8˜5×10^−5 M), and an enzyme (5×10^−9 M) were incubated in a total of 200 μl of a 200 mM phosphate buffer solution (pH=7.4) comprising 8.2 μM NADP+, 0.41 mM glucose-6-phosphate, 0.41 mM MgCl2, and 0.4 Units/ml glucose-6-phosphate dehydrogenase, at 37° C. for 30 minutes. Then, 0.5 M aqueous solution of 2-amino-2-hydroxymethyl-1,3-propanediol containing 80% acetonitrile was added thereto to stop the reaction, and fluorescence intensity was measured with a fluorescent plate reader (excited wavelength: 409 nm, fluorescent wavelength: 530 nm). […] Inhibition Rate (%)=100−(C1−B1)/(C0−B1)×100 • C1: fluorescence intensity in the presence of a known concentration of test compound, enzyme, and a substrate
(§2) C0: fluorescence intensity in the presence of an enzyme and a substrate, in the absence of a test compound • B1: fluorescence intensity of a blank well (5) Cytochrome P450 (2C9) Enzyme Inhibition Effects

The target of the next data set is CYP2C9 (Homo sapiens, UniProt P11712). The data set can be described thus: Cytochrome P450 (2C9) enzyme inhibition effects. Format: biochemical. Particulars: substrate 7-methoxy-4-(trifluoromethyl)coumarin, 37° C., 45 minutes. On the procedure: as §2, §1
A 96 well plate was employed, and 7-methoxy-4-(trifluoromethyl)coumarin (7.5×10^−5 M) as a substrate, a test compound (4.9×10^−8˜5×10^−5M), and an enzyme (10^−8 M) were incubated in a total of 200 μl of a 200 mM phosphate buffer solution (pH=7.4) comprising 8.2 μM NADP+, 0.41 mM glucose-6-phosphate, 0.41 mM MgCl2, and 0.4 Units/ml glucose-6-phosphate dehydrogenase, at 37° C. for 45 minutes. Then, 0.5 M aqueous solution of 2-amino-2-hydroxymethyl-1,3-propanediol containing 80% acetonitrile was added thereto to stop the reaction, and fluorescence intensity was measured with a fluorescent plate reader (excited wavelength: 409 nm, fluorescent wavelength: 530 nm). […]

The next data set has as its system Wistar male rats. The data set can be described thus: Antidiuresis assay (oral administration). Format: in vivo. The settings on record: Rattus norvegicus, read-out: ED50 (amount required for decreasing urinary excretion rate by 50%), 30 ml/kg water load after 15 minutes, urine until 4 hours after water load. On the procedure: (3) Antidiuresis Assay (Oral Administration)
For the assay, Wistar male rats (10˜12 weeks of age) were employed. The test compound was orally administrated, and after 15 minutes, 30 ml/kg of distilled water were orally administrated (water load). Until 4 hours after the water load, urine was collected in a metabolism cage, and the amount of urine when the water load was set to 100% was calculated as the urinary excretion rate. […]

Where only a bound is given, the exact number is not on record here.

T1 sequence (P30518 whole entry): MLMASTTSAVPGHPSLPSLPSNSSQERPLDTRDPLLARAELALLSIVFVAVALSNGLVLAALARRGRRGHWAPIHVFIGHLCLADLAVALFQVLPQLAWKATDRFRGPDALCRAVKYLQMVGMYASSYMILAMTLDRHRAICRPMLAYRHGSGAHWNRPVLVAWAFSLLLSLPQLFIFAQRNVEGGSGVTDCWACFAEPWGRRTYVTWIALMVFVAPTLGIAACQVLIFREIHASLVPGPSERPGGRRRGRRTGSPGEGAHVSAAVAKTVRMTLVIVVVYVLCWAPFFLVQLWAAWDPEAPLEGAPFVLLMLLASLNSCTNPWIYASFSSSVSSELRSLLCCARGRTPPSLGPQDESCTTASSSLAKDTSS
CYP2C9, sequence (P11712 whole entry): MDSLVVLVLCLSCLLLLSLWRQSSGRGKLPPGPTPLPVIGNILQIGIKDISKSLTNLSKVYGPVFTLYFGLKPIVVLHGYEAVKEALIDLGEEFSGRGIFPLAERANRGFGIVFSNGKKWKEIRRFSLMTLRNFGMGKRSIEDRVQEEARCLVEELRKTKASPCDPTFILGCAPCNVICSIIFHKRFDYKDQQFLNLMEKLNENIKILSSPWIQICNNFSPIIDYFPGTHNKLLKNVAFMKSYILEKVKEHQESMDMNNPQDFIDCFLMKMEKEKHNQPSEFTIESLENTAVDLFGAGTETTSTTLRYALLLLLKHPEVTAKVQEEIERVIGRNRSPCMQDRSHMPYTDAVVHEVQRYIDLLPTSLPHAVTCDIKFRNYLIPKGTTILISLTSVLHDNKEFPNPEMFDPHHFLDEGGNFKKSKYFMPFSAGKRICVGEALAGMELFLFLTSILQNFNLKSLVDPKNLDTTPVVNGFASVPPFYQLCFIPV
CYP3A4, sequence (P08684 whole entry): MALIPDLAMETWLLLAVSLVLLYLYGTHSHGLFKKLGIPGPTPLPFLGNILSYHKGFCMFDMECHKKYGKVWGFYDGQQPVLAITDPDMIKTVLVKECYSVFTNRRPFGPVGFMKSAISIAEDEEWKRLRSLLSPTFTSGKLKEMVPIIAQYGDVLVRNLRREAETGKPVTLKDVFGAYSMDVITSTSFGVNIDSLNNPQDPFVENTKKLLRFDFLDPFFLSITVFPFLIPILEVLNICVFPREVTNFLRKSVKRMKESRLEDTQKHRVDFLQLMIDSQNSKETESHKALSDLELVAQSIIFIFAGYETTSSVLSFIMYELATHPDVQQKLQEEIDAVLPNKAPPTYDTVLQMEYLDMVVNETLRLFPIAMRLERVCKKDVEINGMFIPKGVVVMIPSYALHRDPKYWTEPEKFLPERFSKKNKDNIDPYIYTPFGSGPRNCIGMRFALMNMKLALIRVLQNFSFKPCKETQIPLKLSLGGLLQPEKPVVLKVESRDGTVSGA

As to `Cc1ccn(-c2ccc(C(=O)N3CCC(F)(F)/C(=C\C(=O)Nc4ccc(C(N)=O)cc4)c4ccccc43)c(Cl)c2)n1` [Example 72, 4-[((2Z)-2-{1-[2-chloro-4-(3-methyl-1H-pyrazol-1-yl)benzoyl]-4,4-difluoro-1,2,3,4-tetrahydro-5H-1-benzazepin-5-ylidene}acetyl)amino]benzamide], at human V2 receptor, the Ki (as a rule, a dissociation constant, usually derived from enzyme kinetics or from competition with a known ligand) amounted to 3.7 nM. For the compound `NC(=O)CNC(=O)/C=C1/c2ccccc2N(C(=O)c2ccc(N3CCCC3)cc2Cl)CCC1(F)F` [Example 220, (2Z)-N-(2-amino-2-oxoethyl)-2-[1-(2-chloro-4-pyrrolidin-1-ylbenzoyl)-4,4-difluoro-1,2,3,4-tetrahydro-5H-1-benzazepin-5-ylidene]acetamide], the results for the IC50 at CYP3A4 and against CYP2C9 were 10000 nM and 11000 nM, respectively. For the compound `Cc1ccn(-c2ccc(C(=O)N3CCC(F)(F)/C(=C\C(=O)N4CCCC(C(N)=O)C4)c4ccccc43)c(Cl)c2)n1` (stereo not shown) [Example 58, 1-((2Z)-2-{1-[2-chloro-4-(3-methyl-1H-pyrazol-1-yl)benzoyl]-4,4-difluoro-1,2,3,4-tetrahydro-5H-1-benzazepin-5-ylidene}acetyl)piperidine-3-carboxamide], at human V2 receptor, the inhibitory constant (Ki) stood at 4.8 nM. Turning to `Cc1cccc(CNC(=O)/C=C2/c3ccccc3N(C(=O)c3ccc(-n4ccc(C)n4)cc3Cl)CCC2(F)F)n1` [Example 119, (2Z)-2-{1-[2-chloro-4-(3-methyl 1H-pyrazol-1-yl)benzoyl]-4,4-difluoro-1,2,3,4-tetrahydro-5H-1-benzazepin-5-ylidene}-N-[(6-methylpyridin-2-yl)methyl]acetamide], the inhibitory constant (Ki) at human V2 receptor turned out to be 5.6 nM. For `Cc1ccn(-c2ccc(C(=O)N3CCC(F)(F)/C(=C\C(=O)Nc4cccc(CO)c4)c4ccccc43)c(Cl)c2)n1` [Example 76, (2Z)-2-{1-[2-chloro-4-(3-methyl-1H-pyrazol-1-yl)benzoyl]-4,4-difluoro-1,2,3,4-tetrahydro-5H-1-benzazepin-5-ylidene}-N-[3-(hydroxymethyl)phenyl]acetamide], the inhibition constant (Ki) at human V2 receptor came out at 2.2 nM. Further, in the data set with Wistar male rats, the ED50 stood at 0.22 mg/kg. Consider `Cc1ccn(-c2ccc(C(=O)N3CCC(F)(F)/C(=C\C(N)=O)c4ccccc43)c(Cl)c2)n1` [Example 8, (2Z)-2-{1-[2-chloro-4-(3-methyl-1H-pyrazol-1-yl)benzoyl]-4,4-difluoro-1,2,3,4-tetrahydro-5H-benzazepine}acetamide], for which the figures for the IC50 against CYP3A4 and against CYP2C9 were over 20000 nM and 13000 nM, respectively. For `Cc1cccc(NC(=O)/C=C2/c3ccccc3N(C(=O)c3ccc(-n4ccc(C)n4)cc3Cl)CCC2(F)F)c1` [Example 74, (2Z)-2-{1-[2-chloro-4-(3-methyl-1H-pyrazol-1-yl)benzoyl]-4,4-difluoro-1,2,3,4-tetrahydro-5H-1-benzazepin-5-ylidene}-N-(3-methylphenyl)acetamide], the inhibition constant Ki at human V2 receptor was 5.6 nM.

As for `CC(C)NC(=O)C[C@H]1CCCN(C(=O)c2ccc(N3CCCC3)cc2Cl)c2ccccc21` [Control, 2-[(5R)-1-(2-chloro-4-pyrrolidin-1-ylbenzoyl)-2,3,4,5-tetrahydro-1H-1-benzazepin-5-yl]-N-isopropyacetamide, reference compound], the inhibition constant (Ki) at human V2 receptor stood at 68 nM. Besides, the half-maximal inhibitory concentration (IC50) against CYP3A4 and against CYP2C9 was under 91 nM throughout.
